Key:
[1] = system: POLCO (wild buckwheat); assay: Pre-emergence herbicidal activity, cool season; type: in vivo, Polygonum convolvulus; conditions: lowest tested rate with 80% or greater inhibition; rates 300, 100, 30, 10 g/ha; about 14 days
Method in brief: (§1)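 Seeds sown in sterilised fertilised topsoil received surface-applied compound in 50:50 acetone/water, typically at 300, 100, 30 and 10 g/ha, then greenhouse-grown at 30/21° C (warm-season species) or 18/13° C (cool-season species). Percent inhibition versus untreated plants was scored at about 14 days, giving GR80; an asterisk marks activity short of 80% at the top rate.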

[2] = system: AGSST (creeping bentgrass); assay: Post-emergence herbicidal activity, cool season; type: in vivo, Agrostis stolonifera; conditions: abraded plants sprayed at 300, 100, 30 and 10 g/ha; about 14 days after treatment
Procedure: (§2) In another set of tests, the post-emergence activity of compounds of this invention was evaluated on the cool season species listed above. The following procedure was used.
(§3) A pre-prepared topsoil mixture (described above) was placed in a pot and compacted to a depth of 1.0 to 1.25 cm from the top of the pot. Seeds of each of several monocotyledonous and dicotyledonous annual plant species were placed on top of the soil. The seeds were covered with a mixture of 50% topsoil and 50% Rediearth™ in sufficient quantity to level-fill the pots. The pots were then placed on a greenhouse bench and subirrigated as needed.
(§4) When plants growing from the seeds had emerged and reached a suitable growth stage for post-emergence treatment, typically 9 to 14 days after planting, above-ground parts of the plants were subjected to a pre-treatment involving abrasion to create greater opportunity for foliar uptake of subsequently applied compounds. Abrasion was performed using garnet 200w particles applied with a Sears Craftsman hand-held sandblaster operated at approximately 850 kPa (50 psig) pressure.
(§5) A known amount of each test compound dissolved or suspended in an appropriate organic solvent was diluted with a 50:50 mix of acetone and water and applied to the plants by spraying with a standard spray nozzle in a spray volume of […] at a spray pressure of 511 kPa (30 psig). Only the compounds of Examples 1, 8-15 and 17-22 were included in post-emergence tests. Application rates for these compounds were 300, 100, 30 and 10 g/ha. Control plants were abraded but not sprayed.
(§6) After treatment the plants were placed in a greenhouse with an 18/13° C. day/night temperature regime and were subsequently watered as needed for growth. Approximately 14 days after treatment, the plants were observed and herbicidal efficacy recorded as percent inhibition by comparison with control plants. GR80 values were assigned for each compound as described above for the pre-emergence tests.

[3] = system: SOLNI (black nightshade); assay: Pre-plant incorporated (PPI) herbicidal activity, warm season; type: in vivo, Solanum nigrum; conditions: for inhibition at 30 g/ha / inhibition at 100 g/ha / inhibition at 300 g/ha / inhibition at 900 g/ha / inhibition at 10 g/ha: Solanum nigrum, read-out: Percent inhibition SOLNI; for inhibition at 30 g/ha / inhibition at 100 g/ha / inhibition at 300 g/ha / inhibition at 900 g/ha / Percent inhibition SOLNI / inhibition at 10 g/ha: PPI application; for PPI activity (GR80) SOLNI: pre-plant incorporated, GR80 = lowest tested rate with 80% or greater inhibition, approx. 14 days after treating, 30/21° C.
Procedure: (§7) In another set of tests, the pre-plant incorporated (PPI) activity of compounds of this invention was evaluated on the same species as for the pre-emergence tests described above. In the PPI tests the following procedure, designed to simulate PPI application, was used.
(§8) A pre-prepared topsoil mixture (described above) was placed in a pot and compacted to a depth of 1.0 to 1.25 cm from the top of the pot. Seeds of each of several monocotyledonous and dicotyledonous annual plant species were placed on top of the soil. A sufficient quantity of soil to cover the seeds and level fill the pot was weighed into an open container. A known amount of the test compound was dissolved or suspended in an organic solvent and applied by spraying to this cover soil. The cover soil was thoroughly mixed to distribute the test compound throughout the cover soil, and was then applied as a cover layer over the seeds. Untreated soil was used as a cover layer for control pots. After treatment the plants were placed in a greenhouse where they received 0.64 cm of overhead irrigation. All subsequent watering consisted of a light overhead mist and/or subirrigation as needed for germination and growth. Tables 9 and 10 below relate to warm season plant species which were placed after pre-emergence treatment in a greenhouse with a 30/21° C. day/night temperature regime. Tables 11 and 12 below relates to cool season plant species placed after pre-emergence treatment in a greenhouse or growth chamber with an 18/13° C. day/night temperature regime. Only the compounds of Examples 1, 6, 8, 11, 13 and 15-20 were included in PPI tests.
(§9) Approximately 14 days after planting and treating, the plants were observed and herbicidal efficacy recorded as percent inhibition by comparison with untreated plants.

[4] = system: PANMI (wild proso millet); assay: Pre-emergence herbicidal activity, warm season; type: in vivo, Panicum miliaceum; conditions: GR80 = lowest tested rate (300, 100, 30, 10 g/ha) with 80% or greater inhibition; approx. 14 days after treating; 30/21° C.
Method in brief: as §1

[5] = system: POAAN (annual bluegrass); assay: Pre-plant incorporated (PPI) herbicidal activity, cool season; type: in vivo, Poa annua; conditions: weed, PPI application; for inhibition at 30 g/ha / inhibition at 100 g/ha / inhibition at 300 g/ha / inhibition at 900 g/ha / inhibition at 10 g/ha: Poa annua, read-out: Percent inhibition POAAN
Procedure: as §7, §8, §9

[6] = system: BROTE (downy brome); assay: Post-emergence herbicidal activity, cool season; type: in vivo, Bromus tectorum; conditions: abraded plants sprayed at 300, 100, 30 and 10 g/ha; about 14 days after treatment
Procedure: as §2, §3, §4, §5, §6

[7] = system: BROTE (downy brome); assay: Pre-plant incorporated (PPI) herbicidal activity, cool season; type: in vivo, Bromus tectorum; conditions: for inhibition at 30 g/ha / inhibition at 100 g/ha / inhibition at 300 g/ha / inhibition at 900 g/ha / inhibition at 10 g/ha: Bromus tectorum, read-out: Percent inhibition BROTE; for inhibition at 30 g/ha / inhibition at 100 g/ha / inhibition at 300 g/ha / inhibition at 900 g/ha / Percent inhibition BROTE / inhibition at 10 g/ha: weed, PPI application; for PPI activity GR80, BROTE: pre-plant incorporated, lowest tested rate with 80% or greater inhibition, about 14 days
Procedure: as §7, §8, §9

[8] = system: PANDI (fall panicum); assay: Pre-emergence herbicidal activity, warm season; type: in vivo, Panicum dichotomiflorum; conditions: GR80 = lowest tested rate (300, 100, 30, 10 g/ha) with 80% or greater inhibition; approx. 14 days after treating; 30/21° C.
Method in brief: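 GR80 values derive from percent inhibition relative to untreated plants, read roughly 14 days after sowing and pre-emergence soil-surface treatment (compound in 50:50 acetone/water; rates typically 10, 30, 100, 300 g/ha). Warm-season weeds grew at 30/21° C day/night, cool-season ones at 18/13° C; an asterisk marks activity without reaching 80% at the highest rate.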

Row | Compound | Pre-emergence activity GR80, POLCO [1] | Post-emergence activity GR80, AGSST [2] | inhibition at 30 g/ha ([3]; 30 g/ha) [%] | inhibition at 100 g/ha ([3]; 100 g/ha) [%] | inhibition at 300 g/ha ([3]; 300 g/ha) [%] | inhibition at 900 g/ha ([3]; 900 g/ha) [%] | PPI activity (GR80) SOLNI [3] [g/ha] | Pre-emergence activity (GR80) PANMI [4] [g/ha] | inhibition at 30 g/ha ([5]; 30 g/ha) [%] | inhibition at 100 g/ha ([5]; 100 g/ha) [%] | inhibition at 300 g/ha ([5]; 300 g/ha) [%] | inhibition at 900 g/ha ([5]; 900 g/ha) [%] | Post-emergence activity GR80, BROTE [6] | inhibition at 30 g/ha ([7]; 30 g/ha) [%] | inhibition at 100 g/ha ([7]; 100 g/ha) [%] | inhibition at 300 g/ha ([7]; 300 g/ha) [%] | inhibition at 900 g/ha ([7]; 900 g/ha) [%] | PPI activity GR80, BROTE [7] [g/ha] | inhibition at 10 g/ha [3] [%] | inhibition at 10 g/ha [5] [%] | also measured
1 | CCSC(F)(F)S(=O)(=O)c1ncn(C(=O)N(CC)CC)n1 [Example 8, 1-(N,N-diethylcarbamoyl)-3-[difluoro(ethylthio)methylsulfonyl]-1,2,4-triazole] | [empty] | [empty] | 50 | 100 | 100 | 100 | 100 | 100 | 100 | 100 | 100 | 100 | [empty] | 0 | 0 | 65 | 99 | 300 |  |  | 
2 | CCN(CC)C(=O)n1cnc(S(=O)(=O)C(F)(F)SC)n1 [Example 9] | [empty] | [empty] |  |  |  |  |  | 100 |  |  |  |  | [empty] |  |  |  |  |  |  |  | Percent inhibition SOLNI ([3]; 30 g/ha): 95%; Percent inhibition SOLNI ([3]; 100 g/ha): 100%; Percent inhibition SOLNI ([3]; 300 g/ha): 100%; Percent inhibition SOLNI ([3]; 900 g/ha): 99%; Percent inhibition POAAN ([5]; 30 g/ha): 90%; Percent inhibition POAAN ([5]; 100 g/ha): 100%; Percent inhibition POAAN ([5]; 300 g/ha): 100%; Percent inhibition POAAN ([5]; 900 g/ha): 100%; Percent inhibition BROTE ([7]; 30 g/ha): 0%; Percent inhibition BROTE ([7]; 100 g/ha): 0%; Percent inhibition BROTE ([7]; 300 g/ha): 20%; Percent inhibition BROTE ([7]; 900 g/ha): 95%
3 | CCN(CC)C(=O)n1cnc(S(=O)(=O)C(F)(F)C(F)(F)SC)n1 [Example 14] | 300 g/ha | 300 g/ha |  |  |  |  |  | 100 |  |  |  |  | [empty] |  |  |  |  |  |  |  | Pre-emergence activity (GR80) PANDI [8]: 100 g/ha
4 | C=C(C)CC(F)(F)S(=O)(=O)c1ncn(C(=O)N(CC)CC)n1 [Example 18] | 300 g/ha | [empty] | 0 | 20 | 99 | 90 | 300 | 30 | 50 | 65 | 80 | 100 | [empty] | 0 | 0 | 20 | 90 | 300 | 0 | 20 | inhibition at 10 g/ha [7]: 0%
5 | C=C(Br)CC(F)(F)S(=O)(=O)c1ncn(C(=O)N(CC)CC)n1 [Example 19] | [empty] | [empty] | 0 | 0 | 40 | 90 | 100 | 100 | 0 | 10 | 100 | 100 | [empty] | 20 | 20 | 60 | 95 | 300 | 0 | 0 | inhibition at 10 g/ha [7]: 0%

From patent publication US6461997B1, “Triazole sulfones having herbicidal activity” (Monsanto Technology LLC, priority 1999, dated 2002)
